Several values for one entry are separate records, joined by “and”; a condition that tells them apart may be missing. Equal entries are not always repeated. Where two headings read alike, the source gives them in different places.
Experiments:
PDE-5A = PDE-5A (Homo sapiens (Human), UniProt O76074); assay: Caliper Mobility-Shift PDE-5A Assay; type: biochemical
Description: Caliper Mobility-Shift PDE-5A Assay:
A sample to be tested is precisely weighed, dissolved by adding DMSO, mixed sufficiently to form 10 mM solution.
The maximum final concentration of the compound was 10 μM. After incubation at 30° C. for 1 h, 20 μl of 70 μM EDTA was added to terminate reaction. Substrate and products were separated and analyzed by electrophoresis. Conversion rate was calculated by Caliper's Reviewer software, and inhibition rate was calculated by the following formulation, and IC50 was calculated from inhibition rate using Prism 5.0. Inhibition rate=[conversion rate (ZPE)−conversion rate (sample)]×100/[conversion rate (ZPE)−conversion rate (HPE)]
Notation: HPE: blank control without adding enzyme; ZPE: blank control without adding compound.

in vivo = details: Sprague-Dawley (SD), rat, iv, 1 mg/kg
Description: (§1) Avanafil as control drug and the compounds of the present invention (self-made) were dissolved with suitable solvents.
Instruments: API4000 LC-MS/MS
(§2) Chromatography column: Agilent XDB C18 (2.1×50 mm, 5 μm)
(§3) Blood sampling in rats: animals were fixed, tails were heated with water-bath at 10 min before each time point, about 100 μl of blood was collected via caudal vein, and the collected blood samples were placed in heparin sodium-containing anticoagulation tubes. The blood samples were centrifuged at 4° C. and 8,000 rpm for 6 min to obtain blood plasma samples, in which the blood plasma samples should be prepared with 30 min after blood sampling. The blood plasmas were stored in refrigerator with −80° C.
(§4) (1) Samples to be tested were taken out from refrigerator (−80° C.), melt at room temperature, then subjected to volution for 5 min;
(§5) (2) 20 μl of sample was precisely moved to 1.5 ml centrifuge tube;
(§6) (3) 200 μl of internal standard solution was added;
(§7) (4) After 5 min of volution, 5 min of centrifugation (12,000 rpm) was carried out;
(§8) (5) 100 μl of supernatant was precisely taken, 100 μl of water was added, subjected to volution for 5 min, and analyzed by LC-MS/MS.
(§9) Concentrations of samples to be tested (blood plasma samples) were the output results of Analyst 1.5.1 of AB SCIEX (Shanghai Aibocaisi Analytical Instruments Trading Co., Ltd.). Mean values, standard deviations and parameters such as variable coefficients were calculated by Microsoft Excel (when parameters were directly given by Analyst 1.5.1, they were not calculated). PK parameters were calculated using Pharsight Phoenix 6.1 software.

[1] = rat, in vivo, 2 mg/kg
Description: as §1
Instruments: API4000 LC-MS/MS
as §2, §3, §4, §5, §6, §7, §8, §9

[2] = Determination of half-life in SD rats (IV and PO, plasma LC-MS/MS); details: Sprague-Dawley (SD), rat
Description: as §1
Instruments: API4000 LC-MS/MS
as §2, §3, §4, §5, §6, §7, §8, §9

PDE-6 = details: background art, cited from earlier work
New Zealand rabbits = assay: Effects on penis length (AUC) by intravenous administration in New Zealand rabbits; type: in vivo; details: 10 mg/kg IV, sodium nitroprusside 0.2 mg/kg IV 5 min after administration
Text: New Zealand rabbits were subjected to adapt environment, and the rabbits were catched everyday before experiment so that the rabbits were used to repeated catching operation, then administration and stimulation were lunched. The animals were randomly divided according to bodyweight, samples to be tested were separately dissolved with solvent (Table 3 group: Avanafil and Compound 19 were separately dissolved with 5% DMSO+30% Cremophor EL+65% water for injection; Table 4 group, Table 5 group: Avanafil, Compound 14, Compound 17 and Compound 7 were separately dissolved with 45% DMA+20% Cremophor EL+35% water for injection; Table 6 group: Avanafil and Compound 15 were separately dissolved with 30% DMF+50% PEG-400+20% water for injection), corresponding samples to be tested were injected via ear flange veins of these groups, Table 3, Table 4, Table 5, Table 6 groups all had dose of 10 mg/kg, administration volume of 2 ml/kg, 0.2 mg/kg of sodium nitroprusside was intravenously injected in administration volume of 0.5 ml/kg after 5 min of administration.
Lengths of penis of rabbits were measured by digital vernier caliper separately before administration and at 5, 10, 15, 30, 50, 60, 90 and 120 min after administration. During each measurement, touching between penis and vernier caliper should be avoided.

[3] = cited from earlier work
PDE-11 = PDE-11 (Homo sapiens (Human), UniProt Q9HCR9); details: background art; cited from earlier work
[4] = test compound, read-out: IC50 values for PDE-5A, PDE-5A
[5] = Table 5 group, 45% DMA+20% Cremophor EL+35% water for injection
[6] = Table 6 group, 30% DMF+50% PEG-400+20% water for injection
[7] = Table 3 group, 5% DMSO+30% Cremophor EL+65% water for injection
[8] = Table 4 group, 45% DMA+20% Cremophor EL+35% water for injection

Chain of PDE-11 (Q9HCR9 whole entry): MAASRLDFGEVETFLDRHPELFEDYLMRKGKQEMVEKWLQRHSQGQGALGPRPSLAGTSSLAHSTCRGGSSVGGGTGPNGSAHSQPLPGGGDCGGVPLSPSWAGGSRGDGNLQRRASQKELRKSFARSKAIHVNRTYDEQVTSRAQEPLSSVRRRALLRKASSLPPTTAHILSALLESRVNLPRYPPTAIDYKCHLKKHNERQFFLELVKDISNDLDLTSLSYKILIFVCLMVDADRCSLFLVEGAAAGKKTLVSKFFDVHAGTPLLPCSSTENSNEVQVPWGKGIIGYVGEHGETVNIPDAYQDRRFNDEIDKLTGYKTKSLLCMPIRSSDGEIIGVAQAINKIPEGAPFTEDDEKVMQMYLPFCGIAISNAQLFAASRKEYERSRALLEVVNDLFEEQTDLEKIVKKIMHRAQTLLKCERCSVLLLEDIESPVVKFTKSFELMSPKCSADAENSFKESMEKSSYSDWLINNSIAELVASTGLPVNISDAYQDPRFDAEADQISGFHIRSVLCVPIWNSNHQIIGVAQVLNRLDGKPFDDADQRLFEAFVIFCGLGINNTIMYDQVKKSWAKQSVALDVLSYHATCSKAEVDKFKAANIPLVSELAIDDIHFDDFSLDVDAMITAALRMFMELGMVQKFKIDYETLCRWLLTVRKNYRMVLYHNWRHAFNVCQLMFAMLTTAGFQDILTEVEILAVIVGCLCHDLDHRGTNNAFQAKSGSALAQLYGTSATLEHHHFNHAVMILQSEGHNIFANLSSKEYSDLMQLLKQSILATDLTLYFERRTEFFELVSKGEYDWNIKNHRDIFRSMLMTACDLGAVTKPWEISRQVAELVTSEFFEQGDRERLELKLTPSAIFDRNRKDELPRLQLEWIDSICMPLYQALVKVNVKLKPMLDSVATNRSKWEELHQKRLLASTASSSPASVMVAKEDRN

Row | IC50 (PDE-5A; [4]) [nM] | Structure (SMILES) | half-life ([2]; iv, 1 mg/kg) [h] | further results
1 | 0.213 | COc1ccc(COc2nc(N3CC4CC4C3)ncc2C(=O)NCCN2CCOCC2)cc1Cl (stereo not drawn) [Compound 13, 2-(3-azadicyclo[3.1.0]hexan-3-yl)-4-(3-chloro-4-methoxy-benzyloxy)-N-(2-morpholinylethyl)pyrimidine-5-carboxamide] |  | 
2 |  | CCCc1nc(C)c2c(=O)[nH]c(-c3cc(S(=O)(=O)N4CCN(CC)CC4)ccc3OCC)nn12 [Vardenafil] |  | inhibition of PDE-6 (PDE-6): inhibit PDE-6 to some extent
3 | 0.028 | COc1ccc(COc2nc(N3CC4CC4C3)ncc2C(=O)NCc2ccccn2)cc1Cl (stereo not drawn) [Compound 4, 2-(3-azadicyclo[3.1.0]hexan-3-yl)-4-(3-chloro-4-methoxybenzyloxy)-N-(pyridin-2-ylmethyl)pyrimidine-5-carboxamide] | 0.66 | 
4 | 0.075 | COc1ccc(COc2nc(N3CC4CC4C3)ncc2C(=O)NCc2ccc(F)cc2)cc1Cl (stereo not drawn) [Compound 6, 2-(3-azadicyclo[3.1.0]hexan-3-yl)-4-(3-chloro-4-methoxy-benzyloxy)-N-(4-fluorobenzyl)pyrimidine-5-carboxamide] | 1.74 | 
5 | 0.739 | COc1ccc(COc2nc(N3CC4CC4C3)ncc2C(=O)N[C@H]2CC[C@H](O)CC2)cc1Cl (stereo partly drawn) [Compound 7, 2-(3-azadicyclo[3.1.0]hexan-3-yl)-4-(3-chloro-4-methoxy-benzyloxy)-N-[(trans)-4-hydroxycyclohexyl]pyrimidine-5-carboxamide] |  | half-life ([2]; iv, 2 mg/kg): 1.02 h; half-life ([2]; po, 4 mg/kg): 1.59 h; Effects on penis length, AUC (mm × min) (New Zealand rabbits; [5]): 191.5 mm × min
6 |  | COc1ccc(COc2nc(N3CCCC34CC4)ncc2C(=O)N[C@H]2CC[C@H](O)CC2)cc1Cl [Compound 20, 4-(3-chloro-4-methoxybenzyloxy)-N-[(trans)-4-hydroxycyclohexyl]-2-(4-azaspiro[2.4]heptan-4-yl)pyrimidine-5-carboxamide] | 0.87 | 
7 | 0.935 | COc1ccc(COc2nc(N3CCC4(CC3)CC4)ncc2C(=O)NCCN2CCOCC2)cc1Cl [Compound 11, 4-(3-chloro-4-methoxybenzyloxy)-N-(2-morpholinylethyl)-2-(6-azaspiro[2.5]octan-6-yl)pyrimidine-5-carboxamide] |  | 
8 |  | CCCc1nn(C)c2c(=O)[nH]c(-c3cc(S(=O)(=O)N4CCN(C)CC4)ccc3OCC)nc12 [Sildenafil] |  | inhibition of PDE-6 (PDE-6): inhibit PDE-6 to some extent
9 | 0.529 | COc1ccc(COc2nc(N3CC4CC4C3)ncc2C(=O)NCc2cnc(C)cn2)cc1Cl (stereo not drawn) [Compound 5, 2-(3-azadicyclo[3.1.0]hexan-3-yl)-4-(3-chloro-4-methoxy-benzyloxy)-N-[(5-methylpyrazin-2-yl)methyl]pyrimidine-5-carboxamide] |  | 
10 | 1.44 | COc1ccc(COc2nc(N3CCC4(CC4)C3)ncc2C(=O)NCc2ncccn2)cc1Cl [Compound 18, 4-(3-chloro-4-methoxybenzyloxy)-N-(pyrimidin-2-ylmethyl)-2-(5-azaspiro[2.4]heptan-5-yl)-pyrimidine-5-carboxamide] |  | 
11 |  | CN1CC(=O)N2[C@H](c3ccc4c(c3)OCO4)c3[nH]c4ccccc4c3C[C@@H]2C1=O [Tadalafil] |  | half-life in human body [3]: about 16 h
12 | 0.172 | COc1ccc(COc2nc(N3CC4CC4C3)ncc2C(=O)NCc2ccccc2)cc1Cl (stereo not drawn) [Compound 1, N-benzyl-2-(3-azadicyclo[3.1.0]hexan-3-yl)-4-(3-chloro-4-methoxybenzyloxy) pyrimidine-5-carboxamide] | 3.96 | 
13 |  | COc1ccc(CN=c2[nH]c(N3CCC[C@H]3CO)ncc2C(=O)NCc2ncccn2)cc1Cl [Avanafil, reference compound] |  | IC50 (PDE-5A; Avanafil control value given, read-out: IC50 values for PDE-5A, Avanafil/PDE-5A): 10.8 nM (11×) and 19.2 nM and 12.7 nM (2×) and 17.3 nM (4×); inhibition of PDE-11 (PDE-11): does not inhibit PDE-11; ratio of PDE-6/5 (PDE-6; selectivity): about 120; half-life in human body [3]: about 1.2 h; half-life ([2]; iv, 2 mg/kg): 0.53 h; half-life ([2]; po, 2 mg/kg): 0.51 h; Effects on penis length, AUC (mm × min) (New Zealand rabbits; [7]): 155.1 mm × min; Effects on penis length, AUC (mm × min) (New Zealand rabbits; [8]): 132.3 mm × min; Effects on penis length, AUC (mm × min) (New Zealand rabbits; [5]): 168.3 mm × min; Effects on penis length, AUC (mm × min) (New Zealand rabbits; [6]): 146.4 mm × min
14 | 0.186 | COc1ccc(COc2nc(N3CCC4(CC3)CC4)ncc2C(=O)NCc2ccccn2)cc1Cl [Compound 9, 4-(3-chloro-4-methoxybenzyloxy)-N-(pyridin-2-ylmethyl)-2-(6-azaspiro[2.5]octan-6-yl)pyrimidine-5-carboxamide] |  | 
15 | 0.1 | COc1ccc(COc2nc(N3CC4CC4C3)ncc2C(=O)NCc2ncccn2)cc1Cl (stereo not drawn) [Compound 3, 2-(3-azadicyclo[3.1.0]hexan-3-yl)-4-(3-chloro-4-methoxy-benzyloxy)-N-(pyrimidin-2-ylmethyl)pyrimidine-5-carboxamide] |  | 

Row | Structure (SMILES) | IC50 (PDE-5A; [4]) [nM] | half-life ([2]; iv, 1 mg/kg) [h] | further results
16 | COc1ccc(COc2nc(N3C4CCC3COC4)ncc2C(=O)NCc2ccccc2)cc1Cl [Compound 2, N-benzyl-2-(3-oxa-8-azadicyclo[3.2.1]octan-8-yl)-4-(3-chloro-4-methoxybenzyloxy)pyrimidine-5-carboxamide] | 4.01 |  | half-life (in vivo): 1.51 h; t1/2 (h) PO [1]: No
17 | COc1ccc(COc2nc(N3CCC4(CC3)CC4)ncc2C(=O)NCc2ccccc2)cc1Cl [Compound 10, N-benzyl-4-(3-chloro-4-methoxybenzyloxy)-2-(6-azaspiro[2.5]octan-6-yl)pyrimidine-5-carboxamide] | 1.14 | 2.35 | 
18 | COc1ccc(COc2nc(N3CCC4(CC3)CC4)ncc2C(=O)N[C@H]2CC[C@H](O)CC2)cc1Cl [Compound 12, 4-(3-chloro-4-methoxybenzyloxy)-N-[(trans)-4-hydroxycyclohexyl]-2-(6-azaspiro[2.5]octan-6-yl)pyrimidine-5-carboxamide] | 0.719 | 1.44 | half-life ([2]; po, 1 mg/kg): 1.94 h
19 | COc1ccc(COc2nc(N3CCC4(CC4)C3)ncc2C(=O)NCc2ccccc2)cc1Cl [Compound 15, N-benzyl-4-(3-chloro-4-methoxybenzyloxy)-2-(5-azaspiro[2.4]heptan-5-yl)-pyrimidine-5-carboxamide] | 0.119 | 3.32 | Effects on penis length, AUC (mm × min) (New Zealand rabbits; [6]): 339.3 mm × min
20 | COc1ccc(COc2nc(N3CCC4(CC4)C3)ncc2C(=O)N[C@H]2CC[C@H](O)CC2)cc1Cl [Compound 19, 4-(3-chloro-4-methoxybenzyloxy)-N-[(trans)-4-hydroxycyclohexyl]-2-(5-azaspiro[2.4]heptan-5-yl)-pyrimidine-5-carboxamide] | 4.08 | 1.17 | half-life ([2]; po, 2 mg/kg): 1.97 h; Effects on penis length, AUC (mm × min) (New Zealand rabbits; [7]): 523.3 mm × min
21 | COc1ccc(COc2nc(N3CCCC34CC4)ncc2C(=O)NCc2ccccc2)cc1Cl [Compound 14, N-benzyl-4-(3-chloro-4-methoxybenzyloxy)-2-(4-azaspiro[2.4]heptan-4-yl)-pyrimidine-5-carboxamide] | 1.98 | 2.21 | Effects on penis length, AUC (mm × min) (New Zealand rabbits; [5]): 290.1 mm × min
22 | COc1ccc(COc2nc(N3CCC4(CC4)C3)ncc2C(=O)NCc2ccc(F)cc2)cc1Cl [Compound 17, 4-(3-chloro-4-methoxybenzyloxy)-N-(4-fluorobenzyl)-2-(5-azaspiro[2.4]heptan-5-yl)pyrimidine-5-carboxamide] | 2.08 | 1.64 | half-life ([2]; po, 2 mg/kg): 3.26 h; Effects on penis length, AUC (mm × min) (New Zealand rabbits; [8]): 300.9 mm × min
23 | COc1ccc(COc2nc(N3CCC4(CC3)CC4)ncc2C(=O)NCc2ncccn2)cc1Cl [Compound 8, 4-(3-chloro-4-methoxybenzyloxy)-N-(pyrimidin-2-ylmethyl)-2-(6-azaspiro[2.5]octan-6-yl)pyrimidine-5-carboxamide] | 0.476 | 1.34 | 

— patent US8980904B2, “Heterocyclic substituted pyrimidine compound” (Xuanzhu Pharma Co., Ltd., priority 2011, dated 2015)
